Results as given in patent US20230242494A1, “MALONITRILE DERIVATIVES” (Hoffmann-La Roche Inc., priority 2020, published 2023).

The compounds below were run against T1, human cGAS (residues 161-522) (Homo sapiens, UniProt Q8N884) (assay: cGAS Activity Assay—Malachite Green). Details: recombinant purified human cGAS 25 nM; 80 μM ATP, 80 μM GTP, 100 nM ISD; 4 hour at RT; phosphate detection by Malachite Green.
T1 construct: human cGAS (residues 161-522); made in house
T1 sequence (Q8N884 161-522): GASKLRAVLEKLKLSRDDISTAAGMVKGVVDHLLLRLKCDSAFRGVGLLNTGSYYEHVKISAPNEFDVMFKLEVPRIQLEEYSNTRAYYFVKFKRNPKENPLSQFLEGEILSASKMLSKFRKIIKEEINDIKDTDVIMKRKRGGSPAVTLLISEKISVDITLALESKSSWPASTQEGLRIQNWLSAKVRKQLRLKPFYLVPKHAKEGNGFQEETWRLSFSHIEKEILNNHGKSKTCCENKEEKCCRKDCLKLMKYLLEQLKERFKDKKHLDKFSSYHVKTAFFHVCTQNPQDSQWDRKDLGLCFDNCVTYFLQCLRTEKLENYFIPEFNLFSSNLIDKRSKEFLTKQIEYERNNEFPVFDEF
Assay type: biochemical
Procedure: Compounds were tested for cGAS inhibition in a coupled enzymatic assay based on Phosphate detection by Malachite Green. Final assay conditions were 20 mM TRIS pH 7.5 (Applichem), 5 mM MgCl2 (Sigma) and 0.01% BSA (Sigma) supplemented with 80 μM ATP (Sigma), 80 μM GTP (Sigma) and 100 nM Interferon Stimulating DNA (ISD) (Microsynth). Recombinantly expressed purified human cGAS (residues 161-522) was used at 25 nM.
All compounds were prepared as 10 mM stock solutions in DMSO and a 16 pt dilution series in DMSO with a dilution factor of 2.5 was prepared. 1 μL of DMSO dilution series was transferred to 32.3 μL reaction buffer, mixed by pipetting up/down, spun for 1 minute at 3000 rpm and was visually inspected for precipitation. 5 μL of 3-fold enzyme stock solution were transferred to an empty 384-well Black/Clear Flat Bottom Polystyrene NBS (Corning) rows 3-24. Rows 1-2 were filled with assay buffer. Plates were spun 10 seconds at 1000 rpm (164×g). 5 μL of compound intermediate dilution was added and mixed by pipetting up/down to rows 3-24. Rows 1-2 were filled with 3.1% DMSO assay buffer. Plates were spun 10 seconds at 1000 rpm (164×g). 5 μL 3-fold Nucleotide/DNA mix was added to all wells to start the reaction. Plates were spun 10 seconds at 1000 rpm (164×g) and incubated for 4 hour at room temperature (RT) in the dark. 5 μL 4 U/ml PPase (Sigma) were added to all wells. Plates spun 10 seconds at 1000 rpm (164×g). 10 μL BioMol green Solution (Enzo Life Sciences) was added to all wells. Plates spun 10 seconds at 1000 rpm (164×g) and incubated 30 minutes at RT in the dark. Absorbance data was collected 620 nm on an EnVision Multilable Reader (Perkin Elmer) and the following measurement settings were used: excitation filter photometric was 620 nm; excitation from the top; measurement height was 1 mm; number of flashes was 30; number of flashes integrated was 1.
All plates are checked for abnormalities and outliers in the Blank Control (no protein, row 1) and the Neutral Control (no compound, row 2) are excluded using the 3*SD rule. Data was normalized to 0 and 100% by Blank and Neutral Control and each curve was fitted and judged using the 4 parameter logistic equation to determine the IC50 for cGAS inhibition.
Table 13 provides IC50 values (μM) for cGAS inhibition obtained for particular examples of the present invention as measured by the above-described assay.
An IC50 of 170 nM was found for Cc1oncc1/C(O)=C(\C#N)C(=O)Nc1ccc(S(=O)(=O)N(C)C)cc1 [Example 1, (Z)-2-cyano-N-(4-(N,N-dimethylsulfamoyl)phenyl)-3-hydroxy-3-(5-methylisoxazol-4-yl)acrylamide] in this work.
An IC50 of 510 nM was found for CC(=O)c1ccc(NC(=O)/C(C#N)=C(\O)c2cnoc2C)cc1 [Example 2, (Z)-N-(4-acetylphenyl)-2-cyano-3-hydroxy-3-(5-methylisoxazol-4-yl)prop-2-enamide] in this work.
An IC50 of 1070 nM was found for Cc1oncc1/C(O)=C(\C#N)C(=O)Nc1ccccc1 [Example 3, (Z)-2-cyano-3-hydroxy-3-(5-methylisoxazol-4-yl)-N-phenylacrylamide] in this work.
An IC50 of 950 nM was found for Cc1oncc1/C(O)=C(\C#N)C(=O)Nc1ccc(C(F)(F)F)cc1 [Example 4, (Z)-2-cyano-3-hydroxy-3-(5-methylisoxazol-4-yl)-N-(4-(trifluoromethyl)phenyl) acrylamide] in this work.
An IC50 of 1500 nM was found for Cc1oncc1/C(O)=C(\C#N)C(=O)Nc1cccc(C(F)(F)F)c1 [Example 5, (Z)-2-cyano-3-hydroxy-3-(5-methylisoxazol-4-yl)-N-[3-(trifluoromethyl)phenyl] prop-2-enamide] in this work.
An IC50 of 6980 nM was found for Cc1oncc1/C(O)=C(\C#N)C(=O)Nc1cc(C(F)(F)F)cc(C(F)(F)F)c1 [Example 6, (Z)-N-(3,5-bis(trifluoromethyl)phenyl)-2-cyano-3-hydroxy-3-(5-methylisoxazol-4-yl)acrylamide] in this work.
An IC50 of 790 nM was found for Cc1oncc1/C(O)=C(\C#N)C(=O)Nc1ccc(C#N)cc1 [Example 7, (Z)-2-cyano-N-(4-cyanophenyl)-3-hydroxy-3-(5-methylisoxazol-4-yl)acrylamide] in this work.
An IC50 of 340 nM was found for COC(=O)c1ccc(NC(=O)/C(C#N)=C(\O)c2cnoc2C)cc1 [Example 8, methyl (Z)-4-(2-cyano-3-hydroxy-3-(5-methylisoxazol-4-yl)acrylamido)benzoate] in this work.
An IC50 of 7240 nM was found for Cc1oncc1/C(O)=C(\C#N)C(=O)Nc1ccccc1C(F)(F)F [Example 9, (Z)-2-cyano-3-hydroxy-3-(5-methylisoxazol-4-yl)-N-(2-(trifluoromethyl)phenyl) acrylamide] in this work.
An IC50 of 1480 nM was found for Cc1oncc1/C(O)=C(\C#N)C(=O)Nc1ccc(F)cc1 [Example 10, (Z)-2-cyano-N-(4-fluorophenyl)-3-hydroxy-3-(5-methylisoxazol-4-yl)acrylamide] in this work.
An IC50 of 1290 nM was found for Cc1oncc1/C(O)=C(\C#N)C(=O)Nc1ccc(OC(F)(F)F)cc1 [Example 11, (Z)-2-cyano-3-hydroxy-3-(5-methylisoxazol-4-yl)-N-(4-(trifluoromethoxy)phenyl) acrylamide] in this work.
An IC50 of 2600 nM was found for Cc1oncc1/C(O)=C(\C#N)C(=O)Nc1ccc(Cl)c(Cl)c1 [Example 12, (Z)-2-cyano-N-(3,4-dichlorophenyl)-3-hydroxy-3-(5-methylisoxazol-4-yl)acrylamide] in this work.
An IC50 of 3470 nM was found for Cc1oncc1/C(O)=C(\C#N)C(=O)Nc1ccc(Sc2ccc(Cl)cc2)cc1 [Example 13, (Z)-N-(4-((4-chlorophenyl)thio)phenyl)-2-cyano-3-hydroxy-3-(5-methylisoxazol-4-yl)acrylamide] in this work.
An IC50 of 670 nM was found for CSc1ccc(NC(=O)/C(C#N)=C(\O)c2cnoc2C)cc1 [Example 14, (Z)-2-cyano-3-hydroxy-3-(5-methylisoxazol-4-yl)-N-(4-(methylthio)phenyl) acrylamide] in this work.
An IC50 of 3560 nM was found for Cc1oncc1/C(O)=C(\C#N)C(=O)Nc1ccc(Cl)c(C(F)(F)F)c1 [Example 15, (Z)-N-(4-chloro-3-(trifluoromethyl)phenyl)-2-cyano-3-hydroxy-3-(5-methylisoxazol-4-yl)acrylamide] in this work.
An IC50 of 270 nM was found for Cc1oncc1/C(O)=C(\C#N)C(=O)Nc1ccc(S(=O)(=O)c2ccc(Cl)cc2)cc1 [Example 16, (Z)-N-(4-((4-chlorophenyl)sulfonyl)phenyl)-2-cyano-3-hydroxy-3-(5-methylisoxazol-4-yl)acrylamide] in this work.
An IC50 of 640 nM was found for COc1ccc(NC(=O)/C(C#N)=C(\O)c2cnoc2C)cc1 [Example 17, (Z)-2-cyano-3-hydroxy-N-(4-methoxyphenyl)-3-(5-methylisoxazol-4-yl)acrylamide] in this work.
An IC50 of 3710 nM was found for Cc1oncc1/C(O)=C(\C#N)C(=O)Nc1ccc(Oc2cccc(C(F)(F)F)c2)cc1 [Example 18, (Z)-2-cyano-3-hydroxy-3-(5-methylisoxazol-4-yl)-N-(4-(3-(trifluoromethyl)phenoxy)phenyl)acrylamide] in this work.
An IC50 of 7420 nM was found for Cc1cc(NC(=O)/C(C#N)=C(\O)c2cnoc2C)ccc1Oc1ccc(C(F)(F)F)cc1 [Example 19, (Z)-2-cyano-3-hydroxy-N-(3-methyl-4-(4-(trifluoromethyl)phenoxy)phenyl)-3-(5-methylisoxazol-4-yl)acrylamide] in this work.
An IC50 of 1120 nM was found for Cc1oncc1/C(O)=C(\C#N)C(=O)Nc1ccc(Cl)cc1 [Example 20, (Z)-N-(4-chlorophenyl)-2-cyano-3-hydroxy-3-(5-methylisoxazol-4-yl)acrylamide] in this work.
An IC50 of 1440 nM was found for Cc1oncc1/C(O)=C(\C#N)C(=O)Nc1ccc(-n2cccc2)cc1 [Example 21, (Z)-N-(4-(1H-pyrrol-1-yl)phenyl)-2-cyano-3-hydroxy-3-(5-methylisoxazol-4-yl)acrylamide] in this work.
An IC50 of 690 nM was found for Cc1cc(C#N)ccc1NC(=O)/C(C#N)=C(\O)c1cnoc1C [Example 22, (Z)-2-cyano-N-(4-cyano-2-methylphenyl)-3-hydroxy-3-(5-methylisoxazol-4-yl)acrylamide] in this work.
An IC50 of 1810 nM was found for Cc1cc(NC(=O)/C(C#N)=C(\O)c2cnoc2C)ccc1Br [Example 23, (Z)-N-(4-bromo-3-methylphenyl)-2-cyano-3-hydroxy-3-(5-methylisoxazol-4-yl)acrylamide] in this work.
An IC50 of 4370 nM was found for Cc1oncc1/C(O)=C(\C#N)C(=O)Nc1ccc(Oc2ccc(Cl)cc2)c(Cl)c1 [Example 24, (Z)-N-(3-chloro-4-(4-chlorophenoxy)phenyl)-2-cyano-2-hydroxy-3-(5-methylisoxazol-4-yl)acrylamide] in this work.
An IC50 of 1520 nM was found for COC(=O)c1cccc(NC(=O)/C(C#N)=C(\O)c2cnoc2C)c1 [Example 25, methyl 3-[[(Z)-2-cyano-3-hydroxy-3-(5-methylisoxazol-4-yl)prop-2-enoyl]amino]benzoate] in this work.
An IC50 of 1510 nM was found for Cc1oncc1/C(O)=C(\C#N)C(=O)Nc1cccc(S(C)(=O)=O)c1 [Example 26, (Z)-2-cyano-3-hydroxy-3-(5-methylisoxazol-4-yl)-N-(3-(methylsulfonyl)phenyl) acrylamide] in this work.
An IC50 of 150 nM was found for Cc1oncc1/C(O)=C(\C#N)C(=O)Nc1ccc(S(=O)(=O)N2CCCC2)cc1 [Example 27, (Z)-2-cyano-3-hydroxy-3-(5-methylisoxazol-4-yl)-N-(4-(pyrrolidin-1-ylsulfonyl)phenyl) acrylamide] in this work.
An IC50 of 750 nM was found for CCOc1ccc(NC(=O)/C(C#N)=C(\O)c2cnoc2C)cc1 [Example 28, (Z)-2-cyano-N-(4-ethoxyphenyl)-3-hydroxy-3-(5-methylisoxazol-4-yl)prop-2-enamide] in this work.
An IC50 of 70 nM was found for COCCNS(=O)(=O)c1ccc(NC(=O)/C(C#N)=C(\O)c2cnoc2C)cc1 [Example 29, (Z)-2-cyano-3-hydroxy-N-(4-(N-(2-methoxyethyl)sulfamoyl)phenyl)-3-(5-methylisoxazol-4-yl)acrylamide] in this work.
An IC50 of 160 nM was found for Cc1oncc1/C(O)=C(\C#N)C(=O)Nc1ccc(S(=O)(=O)c2ccccc2)cc1 [Example 30, (Z)-2-cyano-3-hydroxy-3-(5-methylisoxazol-4-yl)-N-(4-(phenylsulfonyl)phenyl) acrylamide] in this work.
An IC50 of 1300 nM was found for COc1ccc(NC(=O)/C(C#N)=C(\O)c2cnoc2C)cc1C [Example 31, (Z)-2-cyano-3-hydroxy-N-(4-methoxy-3-methyl-phenyl)-3-(5-methylisoxazol-4-yl)prop-2-enamide] in this work.
An IC50 of 530 nM was found for COC(=O)Cc1ccc(NC(=O)/C(C#N)=C(\O)c2cnoc2C)cc1 [Example 32, methyl 2-[4-[[(Z)-2-cyano-3-hydroxy-3-(5-methylisoxazol-4-yl)prop-2-enoyl]amino]phenyl] acetate] in this work.
An IC50 of 310 nM was found for Cc1oncc1/C(O)=C(\C#N)C(=O)Nc1cccc(C#N)c1 [Example 33, (Z)-2-cyano-N-(3-cyanophenyl)-3-hydroxy-3-(5-methylisoxazol-4-yl)prop-2-enamide] in this work.
An IC50 of 190 nM was found for Cc1oncc1/C(O)=C(\C#N)C(=O)Nc1ccc([S+]([O-])c2ccccc2)cc1 (stereo not shown) [Example 34, (Z)-2-cyano-3-hydroxy-3-(5-methylisoxazol-4-yl)-N-(4-(phenylsulfinyl)phenyl) acrylamide] in this work.
